From ChEMBL document CHEMBL4808216, “Gut-Restricted Selective Cyclooxygenase-2 (COX-2) Inhibitors for Chemoprevention of Colorectal Cancer” (J Med Chem, 2021)
Values after ≈ are worked out from the molar mass of the structure shown. Active and inactive are the calls of the source. No cut-off for these calls is given here.

Legend:
[1] = Drug concentration in C57BL/6J mouse portal vein plasma at 10 mg/kg, po administered as cassette dose measured at 4 hrs by LC/MS/MS analysis; type: ADME, organism-based
[2] = Equilibrium solubility of compound in FASSIF at pH 6.5; type: physicochemical
[3] = Protein binding in human plasma assessed as unbound fraction; type: ADME, cell-free
[4] = Half life in mouse liver microsomes; type: ADME, Microsome
[5] = Half life in mouse hepatocytes; type: ADME, cell-based, Hepatocyte
[6] = Drug concentration in C57BL/6J mouse colon at 10 mg/kg, po administered as cassette dose measured at 4 hrs by LC/MS/MS analysis; type: ADME, organism-based; conditions: read-out: Ct
[7] = Clearance in C57BL/6J mouse at 2 mg/kg, iv measured after 0.08 to 24 hrs; type: ADME, organism-based; conditions: in vivo, time 0.08-24 hrs
[8] = Tmax in C57BL/6J mouse at 10 mg/kg, po administered as cassette dose measured at 4 hrs by liquid chromatographic triple-quadrupole mass spectrometric method; type: ADME, organism-based; conditions: in vivo
[9] = Half life in human hepatocytes; type: ADME, cell-based, Hepatocyte
Mus musculus [10] = assay: Antitumor activity in C57BL/6J mouse model of spontaneous GI-tract tumor Apc-min assessed as mouse survival at 100 mg/kg, po administered daily as suspension and measured at day 82 by Kaplan-Meier method; type: functional
Mus musculus [11] = assay: Chemo-protective activity in C57BL/6J mouse model of spontaneous GI-tract tumor Apc-min assessed as 18F-FDG uptake in ileum at 300 mg/kg, po incorporated into chow diet administered daily for 2 weeks and measured after 14 days by ex vivo PET imaging analysis relative to control; type: functional
[12] = Drug concentration in C57BL/6J mouse plasma at 10 mg/kg, po administered as cassette dose measured at 4 hrs by LC/MS/MS analysis; type: ADME, organism-based
[13] = Half life in human liver microsomes; type: ADME, Microsome
[14] = Protein binding in human colon assessed as unbound fraction; type: ADME, tissue-based
[15] = Half life in C57BL/6J mouse at 2 mg/kg, iv measured after 0.08 to 24 hrs; type: ADME, organism-based; conditions: C57BL/6J, in vivo, time 0.08-24 hrs
[16] = Volume of distribution at steady state in C57BL/6J mouse at 2 mg/kg, iv measured after 0.08 to 24 hrs; type: ADME, organism-based; conditions: C57BL/6J, in vivo, time 0.08-24 hrs, read-out: Vdss
Mus musculus [17] = assay: Antitumor activity in C57BL/6J mouse model of spontaneous GI-tract tumor Apc-min assessed as reduction in total ileum polyp area at 300 mg/kg, po administered as suspension for 10 to 12 weeks; type: functional; conditions: time 10-12 weeks, read-out: TGI
[18] = biological target: T1, Prostaglandin G/H synthase 1 (Homo sapiens, UniProt P23219); assay: Inhibition of COX1 (unknown origin) expressed in HEK293 TRex cells assessed as reduction in PGE2 production using arachidonic acid as substrate preincubated for 60 mins followed by substrate addition for 1 hr in presence of 10% FBS by RapidFire High-Throughput Mass Spectrometry; type: ADME, cell-based, HEK293-T-REx
[19] = Ratio of drug concentration in C57BL/6J mouse colon to plasma at 10 mg/kg, po measured after 4 hr by liquid chromatographic triple-quadrupole mass spectrometric method; type: ADME, organism-based; conditions: for Kp at 4 h: C57BL/6J, colon / plasma
[20] = biological target: T2, Prostaglandin G/H synthase 2 (Homo sapiens, UniProt P35354); assay: Inhibition of COX2 (unknown origin) expressed in HEK293 TRex cells assessed as reduction in PGE2 production using arachidonic acid as substrate preincubated for 60 mins followed by substrate addition for 1 hr in presence of 10% FBS by RapidFire High-Throughput Mass Spectrometry; type: cell-based, HEK293-T-REx
T2 sequence (P35354 whole entry): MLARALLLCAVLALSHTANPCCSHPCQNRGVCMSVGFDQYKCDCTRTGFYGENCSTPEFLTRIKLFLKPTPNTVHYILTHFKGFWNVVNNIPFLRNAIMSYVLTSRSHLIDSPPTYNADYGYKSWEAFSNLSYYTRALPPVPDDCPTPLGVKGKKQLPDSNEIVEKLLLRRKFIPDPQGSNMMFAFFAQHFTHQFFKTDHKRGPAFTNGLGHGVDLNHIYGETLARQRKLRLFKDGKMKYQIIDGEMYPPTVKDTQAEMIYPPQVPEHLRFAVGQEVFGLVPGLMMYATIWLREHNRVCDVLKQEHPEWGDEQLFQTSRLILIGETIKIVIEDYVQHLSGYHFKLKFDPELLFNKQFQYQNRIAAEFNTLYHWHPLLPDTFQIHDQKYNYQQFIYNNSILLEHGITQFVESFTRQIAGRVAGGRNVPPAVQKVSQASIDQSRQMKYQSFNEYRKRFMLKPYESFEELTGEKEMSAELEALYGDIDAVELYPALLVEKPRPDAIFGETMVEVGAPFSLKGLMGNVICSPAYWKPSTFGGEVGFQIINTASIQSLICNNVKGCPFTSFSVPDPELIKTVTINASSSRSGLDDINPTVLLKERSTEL

HEK293 = assay: Selectivity ratio of IC50 for COX1 (unknown origin) expressed in HEK293 TRex cells assessed as reduction in PGE2 production to IC50 for COX2 (unknown origin) expressed in HEK293 TRex cells assessed as reduction in PGE2 production; type: cell-based; conditions: Homo sapiens
[21] = biological target: T2, Prostaglandin G/H synthase 2; assay: Inhibition of human recombinant COX-2 using arachidonic acid as substrate preincubated for 60 mins followed by substrate addition for 2 secs by ADPH based fluorometric analysis
[22] = biological target: T2, Prostaglandin G/H synthase 2; assay: Inhibition of human recombinant COX-2 assessed as reduction in peroxidase activity using arachidonic acid as substrate preincubated for 60 mins followed by substrate addition for 2 secs by ADPH based fluorometric analysis
Mus musculus [23] = assay: Antitumor activity in C57BL/6J mouse model of spontaneous GI-tract tumor Apc-min assessed as reduction in total ileum polyp area at 30 to 300 mg/kg, po administered as suspension for 10 weeks; type: functional, organism-based; conditions: dose 30-300 mg/kg
Homo sapiens = species on record: Homo sapiens; assay: Selectivity ratio of IC50 for COX1 in human whole blood assessed as reduction in calcium ionophore-stimulated TXB2 production to IC50 for COX2 in human whole blood assessed as reduction in LPS stimulated PGE2 production; type: tissue-based
[24] = biological target: T1, Prostaglandin G/H synthase 1; assay: Inhibition of human recombinant COX-1 assessed as reduction in peroxidase activity using arachidonic acid as substrate preincubated for 60 mins followed by substrate addition for 2 secs by ADPH based fluorometric analysis; type: ADME
[25] = biological target: T1, Prostaglandin G/H synthase 1; assay: Inhibition of COX1 in human whole blood assessed as reduction in calcium ionophore-stimulated TXB2 production incubated for 1 hr by ELISA; type: tissue-based
in vivo = conditions: C57BL/6J, mouse, colon / portal vein plasma, po, 10 mg/kg
Description: Ratio of drug concentration in C57BL/6J mouse colon to portal vein plasma at 10 mg/kg, po measured after 4 hr by liquid chromatographic triple-quadrupole mass spectrometric method

Mus musculus [26] = assay: Antitumor activity in C57BL/6J mouse model of spontaneous GI-tract tumor Apc-min assessed as reduction in total ileum polyp number at 30 to 300 mg/kg, po administered as suspension for 10 weeks; type: functional, organism-based; conditions: dose 30-300 mg/kg
[27] = biological target: T3, Prostaglandin G/H synthase 2 (Mus musculus, UniProt Q05769); assay: In vivo inhibition of COX2 in po dosed C57BL/6J mouse model of spontaneous GI-tract tumor Apc-min assessed as chemopreventive effect by measuring reduction in polyp area and relevant ileum exposures; type: functional, organism-based
T3 sequence (Q05769 whole entry): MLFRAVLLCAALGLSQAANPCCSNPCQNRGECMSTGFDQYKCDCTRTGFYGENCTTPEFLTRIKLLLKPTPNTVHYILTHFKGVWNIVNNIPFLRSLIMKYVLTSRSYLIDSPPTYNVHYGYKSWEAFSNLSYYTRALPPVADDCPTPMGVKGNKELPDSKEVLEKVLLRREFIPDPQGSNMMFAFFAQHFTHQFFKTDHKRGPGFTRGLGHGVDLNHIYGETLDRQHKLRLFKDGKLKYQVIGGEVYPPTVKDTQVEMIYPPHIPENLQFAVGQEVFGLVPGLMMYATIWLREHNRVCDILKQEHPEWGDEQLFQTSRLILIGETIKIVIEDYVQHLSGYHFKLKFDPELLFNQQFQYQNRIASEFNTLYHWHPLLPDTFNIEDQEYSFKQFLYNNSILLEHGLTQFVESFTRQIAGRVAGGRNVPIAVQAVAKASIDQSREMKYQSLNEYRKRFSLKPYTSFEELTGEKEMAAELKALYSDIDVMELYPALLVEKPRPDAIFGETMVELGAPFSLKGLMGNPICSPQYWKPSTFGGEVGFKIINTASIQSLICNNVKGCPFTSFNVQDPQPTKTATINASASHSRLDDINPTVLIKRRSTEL

[28] = biological target: T3, Prostaglandin G/H synthase 2; assay: In vivo inhibition of COX2 in po dosed C57BL/6J mouse model of spontaneous GI-tract tumor Apc-min assessed as chemopreventive effect by measuring reduction in polyp area and relevant plasma exposures; type: functional, organism-based
[29] = biological target: T2, Prostaglandin G/H synthase 2; assay: Inhibition of COX2 in human whole blood assessed as reduction in LPS stimulated PGE2 production incubated for 1 hr by ELISA; type: tissue-based
[30] = biological target: T4, Prostaglandin G/H synthase 2 (Homo sapiens) (UniProt P35354)
T4 sequence (whole entry): T2 sequence (P35354 whole entry)
Description: Protein occupancy at human recombinant COX-2 assessed as dissociation half life

T1 sequence (P23219 whole entry): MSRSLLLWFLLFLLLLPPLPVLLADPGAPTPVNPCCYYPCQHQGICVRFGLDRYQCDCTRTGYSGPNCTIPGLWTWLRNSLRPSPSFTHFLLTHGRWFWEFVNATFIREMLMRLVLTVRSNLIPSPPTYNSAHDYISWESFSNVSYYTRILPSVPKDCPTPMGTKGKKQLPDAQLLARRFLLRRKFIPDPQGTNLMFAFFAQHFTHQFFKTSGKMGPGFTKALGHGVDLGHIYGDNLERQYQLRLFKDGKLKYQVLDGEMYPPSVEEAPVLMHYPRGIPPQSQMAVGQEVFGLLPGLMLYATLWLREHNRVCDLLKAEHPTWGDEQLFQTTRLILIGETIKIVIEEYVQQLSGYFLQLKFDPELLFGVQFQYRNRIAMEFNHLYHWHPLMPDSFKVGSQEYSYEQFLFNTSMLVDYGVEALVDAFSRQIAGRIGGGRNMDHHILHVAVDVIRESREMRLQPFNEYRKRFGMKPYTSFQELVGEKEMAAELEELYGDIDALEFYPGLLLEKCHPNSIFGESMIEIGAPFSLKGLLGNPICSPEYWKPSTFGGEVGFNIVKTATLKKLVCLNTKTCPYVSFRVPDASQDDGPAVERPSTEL

Row | SMILES | concentration at 4 h [1] | solubility thermodynamic [2] | half-life [4] | half-life [5] | concentration at 4 h [6] | clearance [7] | Tmax [8] | half-life [9] | Survival (Mus musculus [10]) | Activity (Mus musculus [11]) | concentration at 4 h [12] | half-life [13] | fraction unbound [14] | half-life [15] | Vd [16] | inhibition in vivo at 300 mg/kg (Mus musculus [17]) | IC50 [18] | Kp at 4 h [19] | IC50 [20] | Ratio IC50 (HEK293) | other results
1 | Cc1ccc(-c2cc(C(F)(F)F)nn2-c2ccc(S(N)(=O)=O)cc2)cc1 [CELECOXIB] | 2150 ng/mL | 134 µM (≈ 50.9 µg/mL) | 59.3 min | 33.1 min | 9460 ng/g | 10.5 mL/min/kg | 15 min | 57.4 min | >82 days | 31.4% | 2550 ng/mL | 67.2 min | 0.0031 | 76.2 min | 0.94 L/kg | 65.9% | – | – | – | – | Fu [3]: 0.3%
2 | CCCCOc1nc(-c2ccc(F)cc2)c(-c2ccc(S(C)(=O)=O)cc2)cc1CO | – | – | – | – | 1940 ng/g | 32.2 mL/min/kg | – | – | – | – | 75.9 ng/mL | – | – | – | – | – | 511 nM | 24.9 | 49 nM | 10 | –
3 | CC(C)(O)COc1nc(OCCCC(F)(F)F)c(CO)cc1-c1ccc(S(C)(=O)=O)cc1 | 230 ng/mL | 111 µM (≈ 52.8 µg/mL) | – | – | 16000 ng/g | – | – | – | 62.5 days | – | 3.8 ng/mL | – | 0.204 | – | – | 39.8% | 21800 nM | – | 78 nM | – | Ki [21]: 12 nM; fraction unbound [3]: 0.011; Ratio ([19]; other tissue, 10 mg/kg, 4 h): 4473; IC50 [22]: 360 nM; Activity (Mus musculus [23]): Active; Ratio (Homo sapiens): > 200; IC50 [24]: > 50 µM; IC50 [25]: > 180 µM; Kp at 4 h (in vivo): 77; Activity (Mus musculus [26]): Active; IC50 [27]: 160 nM; IC50 [28]: 1.9 nM; IC50 [29]: 345 nM; T1/2 [30]: 27 h
4 | CCCCOc1nc(OCC2COC2)c(-c2ccc(S(C)(=O)=O)cc2)cc1CO | – | – | – | – | 1870 ng/g | 102 mL/min/kg | – | – | – | – | 6.7 ng/mL | – | – | – | – | – | 2460 nM | 402 | 36 nM | 70 | –
5 | Cc1ccc(-c2ncc(Cl)cc2-c2ccc(S(C)(=O)=O)cc2)cn1 [ETORICOXIB] | 48.6 ng/mL | 358 µM (≈ 128 µg/mL) | 53.8 min | 29.2 min | 55.7 ng/g | 41.3 mL/min/kg | 15 min | > 371 min | >82 days | 43.5% | 36.4 ng/mL | > 184 min | – | 46.8 min | 1.27 L/kg | – | > 50000 nM | 1.5 | – | – | fraction unbound [3]: 0.114; IC50 [24]: > 50 µM; IC50 [25]: 93.8 µM; Kp at 4 h (in vivo): 1.2; T1/2 [30]: 6.1 h
